{"source": "paper PMC9747717", "about": "“A novel small molecule inhibitor of human Drp1” (Scientific Reports, 2022)", "key": {"human Drp1 isoform 3": {"target": "T1, human Drp1 isoform 3 (Homo sapiens, UniProt O00429)", "T1 construct": "His tag; made in house; host or cells: E. coli Rosetta (DE3), pET21b vector", "T1 sequence (O00429 1-699 isoform O00429-4)": "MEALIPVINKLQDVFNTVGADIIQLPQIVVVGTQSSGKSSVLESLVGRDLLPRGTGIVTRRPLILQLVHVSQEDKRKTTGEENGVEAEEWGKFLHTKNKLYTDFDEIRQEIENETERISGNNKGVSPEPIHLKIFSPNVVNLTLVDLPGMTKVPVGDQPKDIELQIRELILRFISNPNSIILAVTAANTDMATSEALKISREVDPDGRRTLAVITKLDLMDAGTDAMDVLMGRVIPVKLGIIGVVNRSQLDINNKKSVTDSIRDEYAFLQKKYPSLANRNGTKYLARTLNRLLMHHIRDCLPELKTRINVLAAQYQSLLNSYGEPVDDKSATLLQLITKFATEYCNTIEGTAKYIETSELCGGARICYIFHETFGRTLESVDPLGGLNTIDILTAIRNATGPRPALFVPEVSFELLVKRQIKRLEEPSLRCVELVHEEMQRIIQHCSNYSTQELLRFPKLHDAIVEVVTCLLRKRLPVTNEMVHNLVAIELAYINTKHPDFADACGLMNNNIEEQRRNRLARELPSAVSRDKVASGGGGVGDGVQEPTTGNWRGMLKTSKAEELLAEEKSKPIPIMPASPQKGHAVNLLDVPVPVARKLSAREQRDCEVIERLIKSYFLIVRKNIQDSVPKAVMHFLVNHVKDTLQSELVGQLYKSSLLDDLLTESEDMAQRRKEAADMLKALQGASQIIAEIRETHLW", "test": "Microscale thermophoresis (MST) binding", "settings": "human Drp1 isoform 3, 5% DMSO", "procedure": "The recombinant human Drp1 protein (His-tagged human Drp1 isoform 3, kindly provided by Professor Michael Ryan, Monash University, Australia) was generated as described previously. Briefly, cDNA for human Drp1 (isoform 3) was cloned into pET21b vector and transformed in Rosetta (DE3) competent cells (Novagen, MA, Merck Millipore). Transformed cells were propagated in Luria–Bertani broth and protein expression was initiated by the addition of 0.5 mM isopropyl β-D-1-thiogalactopyranoside. Cells were harvested by centrifugation at 3,500 g for 20 min at 4 °C, and the pellet was re-suspended in lysis buffer containing 50 mM Tris HCl (pH 7.3), 500 mM NaCl, 50 mM imidazole, 2.5 mM β-mercaptoethanol, 0.01 mM LEUPEP, 0.1 mM AEBSF and 1 mM benzaminidium chloride. The cells were lysed using a pre-cooled EmulsiFlex-C5 homogenizer (Avestin, Ontario, Canada) on ice and clarified by centrifugation at 17,000 g for 30 min. The clarified cell lysate was loaded onto a 5 mL Nickel Chelating Sepharose Fast Flow column (GE Healthcare, Buckinghamshire, UK) and Drp1 protein was eluted with wash buffer containing 50 mM Tris–HCl (pH 7.6), 150 mM NaCl, 2.5 mM β-mercaptoethanol and 400 mM imidazole. […]\nCompound binding was assessed in against the human Drp1 isoform-3 protein using MST Monolith NT.115 instrument (NanoTemper Technologies, Mȕnchen, Germany). […]"}, "HL-1 cells": {"test_system": "HL-1 cells", "test": "Mitochondrial morphology in HL-1 cells under simulated ischaemia-reperfusion injury", "type": "cell-based, Murine", "settings": "50 µM, DMSO 63.14 ± 8.12%", "procedure": "HL-1 cells were plated in 24-well plate pre-coated with 5 μg/mL human fibronectin (Merck Millipore, MA, USA) in 0.02% porcine gelatin solution (Sigma-Aldrich, MA, USA). Cells were maintained in Claycomb media (Sigma-Aldrich) supplemented with 0.1 mM (±)-norepinephrine (+)-bitartrate salt (Sigma-Aldrich), 2 mM GlutaMAX (Thermo Fisher Scientific, MA, USA), 100 μg/mL penicillin/streptomycin (Thermo Fisher Scientific) and 10% non-heat inactivated foetal bovine serum (FBS) (Bovogen Biologicals, Victoria, Australia). The simulated ischaemia–reperfusion injury was performed as described in Rosdah et al.[25]. […] Cell death was determined by staining with 1 μg/mL propidium iodide and 3 μg/mL Hoechst 33258. The number of dead cells (propidium iodide positive) was counted and expressed as a percentage over total number of cells (Hoechst 33258 positive). At least 100 cells were counted per group for each independent experiment.\nMitochondrial morphology in HL-1 cells were visualised by immunostaining of mitochondrial Hsp60 antibody (Abcam, MA, USA). Images were acquired using Olympus BX60 fluorescence microscope at 600 × magnification and analysed using Fiji imaging software (ImageJ v1.53c). […] At least 100 cells were analysed for each treatment group."}}, "note": "Several values for one entry are separate records, joined by “and”; a condition that tells them apart may be missing. Identical values can stand only once.", "data": [{"smiles": "Cc1nc[nH]c1CN1C[C@@H]2CC[C@H](C1)N(Cc1ccc(-c3cc[nH]n3)o1)C2", "note": "[DRP1i27]", "values": [{"measurement": "Kd", "setting": "human Drp1 isoform 3", "value": "191 µM and 190 µM"}, {"measurement": "percentage of cells with fragmented mitochondria", "setting": "HL-1 cells", "value": "36.62 ± 7.37", "unit": "%"}]}]}
